{"source": "patent US20260242390A1", "about": "“TOTAL SYNTHESES OF PORTIMINE A AND ANALOGUES THEREOF AS SMALL MOLECULE MODULATORS OF NMD3” (priority 2023, published 2026)", "key": {"Jurkat cells": {"tested_on": "Jurkat cells", "assay": "Cell cycle analysis, propidium iodide flow cytometry", "type": "cell-based, human", "settings": "for G2M/sub-G1 (mostly apoptotic cells) / S phase entry: Jurkat cells, 10 nM treatment, 24 hr", "method": "FIG. 2. […] Cell cycle analysis in Jurkat cells. Jurkat cells were treated with 10 nM of indicated compounds for 24 hours, and propodium iodide was used to identify different stages of cells by flow cytometry.\nFIG. 6. Portimine A inhibits S phase entry in Jurkat cells. Portimine A downregulates NMD3 at protein level but upregulates in mRNA level in cells, as well as some essential apoptosis proteins. […] Protein degradation of p53, Mcl1, Bid, Bim, Noxa can be rescued by MG132 or Epoxomicin. (B) NMD3 mRNA increased after PA treatment, but not ePA control compound. Jurkat cells were treated with indicated compounds for 24 hr; Cells were then fixed and perform Propidium Iodide staining.\n• 1) Portimine A and its functional analogs show stereo-selective acute toxicity in cancer cells (FIG. 1). […] (B) Structure of portimine related analogs: phenyl-portimine A (Ph-PA, 36) and epi-portimine A (ePA, 38). Structure of fully functionalized portimine A-based epimeric probe pair: portimine A-diazirine-alkyne (PA-DA, 35-2) and epi-portimine A-diazirine-alkyne (ePA-DA, 35-1). (C) Cell viability analysis of portimine A and analogs. Jurkat cells were treated with increasing concentrations of portimine A and analogs for 24 hours. All presented data as mean of biological replicated experiments (n=3). […] Jurkat cells were treated with portimine A or analogs for 12 hours at 10 nM. […] Structurally related negative control ePA and PB are non-toxic in all cell types in the current concentrate range. PBMCs (25k per well), Jurkat (10k per well). […] Cell cycle analysis in Jurkat cells (FIG. 2). Jurkat cells were treated with 10 nM of indicated compounds for 24 hours, and propodium iodide was used to identify different stages of cells by flow cytometry. […] (A) PA and Ph-PA show less toxic to healthy PBMCs compared to Jurkat cells. […] (B) Immunoblot of caspase-3 in Jurkat and PBMCs with indicated conditions. […] (A) Pharmacokinetic studies of mouse intraperitoneal (i.p.) and oral (p.o.) administration for portimine (n=3). […] Impact of PA [0.3 or 1 mg/kg intraperitoneally] on MC38 tumor growth in WT mice (n=6). (C) Kaplan-Myer survival curve of WT MC38 tumor-bearing mice (n=6) after treatment with PA as described in (D). Mice were euthanized when tumor area exceeded 2000 mm^3. Statistical analysis was performed using ANOVA analysis followed by multiple comparisons test, * p≤0.05. Treatment condition: Jurkat (60 M per condition); PA-DA/ePA-DA concentration: 0.5 uM, PA or ePA: 5 uM; Incubate with probe with or without competitors (PA, ePA) for 30 min; UV irradiated for 20 min. (0.5 uM PA-DA add a no-UV condition), Standard pulldown & biotin-enrichment and western blot analysis (Elute condition: 2× sample buffer+500 uM biotin, boil for 20 mins); Primary antibody NMD3 (ProteinTech, 1:150), Actin (BioRad, 1:10000). […] Chemical proteomic profiling with PA-DA in Jurkat cells (A, B, C, G) and HCC1806 cells (D, E, F, H) show NMD3 is the primary target candidate of portimine A. Volcano plot in panels A and D show protein competition in cells treated with active photoaffinity probe PA-DA (500 nM) and DMSO or the active competitor portimine A (PA, […]), dotted lines indicate threshold of fold change <4, p-value>0.05. […] (I, J) Confirmation of PA-DA engagement of NMD3 in Jurkat and HCC1806 cells. […] Treatment condition: Jurkat (5M per well). Portimine A concentration: 2 nM-1000 nM; In total treat cell for 12 hours. […] Protein degradation of p53, Mcl1, Bid, Bim, Noxa can be rescued by MG132 or Epoxomicin. […]"}, "U118": {"tested_on": "U118", "assay": "Broad cell line profiling, U118", "type": "cell-based", "settings": "Homo sapiens; U118, Glioblastoma; read-out: PA IC50", "excerpt": "• A panel of human and mouse cancer cell types used to assess the breadth of PA activity, including multiple therapy resistant metastatic mesenchymal tumor cell lines and primary glioblastoma patient-derived metastatic stem/tumor initiating cell populations."}}, "data": [{"molecule": "C=CC1=C[C@@H]2[C@@H]3O[C@]4(CC[C@H](O4)C(C)C[C@@H](O)C3=O)CC(O)C3=NCC[C@@]32CC1", "note": "(stereo partly drawn) [PA, portimine A]", "values": [{"measurement": "cell cycle arrest in Jurkat cells", "setting": "Jurkat cells; 10 nM, 24 hours", "result": "triggers cell cycle arrest"}, {"measurement": "G2M/sub-G1 (mostly apoptotic cells)", "setting": "Jurkat cells", "result": "does not affect"}, {"measurement": "S phase entry", "setting": "Jurkat cells", "result": "inhibited"}, {"measurement": "IC50", "setting": "U118", "result": 5.6, "unit": "nM"}]}, {"molecule": "C#CCCC1(CCNC(=O)c2ccc(C3=C[C@@H]4[C@@H]5O[C@]6(CC[C@H](O6)C(C)C[C@@H](O)C5=O)CC(O)C5=NCC[C@@]54CC3)cc2)N=N1", "note": "(stereo partly drawn) [PA-DA, portimine A-diazirine-alkyne]", "values": [{"measurement": "G2M/sub-G1 (mostly apoptotic cells)", "setting": "Jurkat cells", "result": "does not affect"}, {"measurement": "S phase entry", "setting": "Jurkat cells", "result": "inhibited"}]}]}
